Blank lines part the entries; values can stand above or below the molecule they belong to.
Tests used:
[1] = biological target: T1, Recombinant STAT3 protein (STAT3(G127-I722)) (Homo sapiens, UniProt P40763); test: STAT3 Fluorescence Polarization (FP) Assay; assay type: binding; conditions: STAT3(G127-I722) 25 nM, probe 5-FAM-GpYLPQTV-NH2 2 nM, 45-minute incubation
T1 construct: STAT3(G127-I722)
Method: STAT3 Fluorescence Polarization (FP) Assay
An FP assay was developed to determine IC50 values for test substances. Recombinant STAT3 protein (STAT3(G127-I722)) at 25 nM was combined with a fluorescently labeled, phosphotyrosine peptide probe (5-FAM-GpYLPQTV-NH2) at 2 nM in FP buffer (10 mM HEPES pH 7.4, 50 mM NaCl, 1 mM EDTA, 0.05% Tween 20, 2 mM DTT). 50 μL of STAT3-probe mixture was added to serial diluted compounds in black, 96-well plates (Greiner BioOne 655076) to a final concentration of 1% DMSO. Reaction components were mixed, and FP was measured after 45-minute incubation at room temperature using a Tecan Spark multimode plate reader. FP signal (mP) was plotted against the log concentration of the test substances and IC50 values were calculated by nonlinear regression analysis using GraphPad Prism software. For STAT3 FP assay, A=≤100 nM; B=>100-1000 nM; C=>1-10 μM; and D=>10 μM.

[2] = biological target: T2, Recombinant STAT6 protein (STAT6(W123-T658)) (Homo sapiens, UniProt P42226); test: STAT6 Fluorescence Polarization (FP) Assay; assay type: binding; conditions: STAT6(W123-T658) 250 nM, probe 5-FAM-ApYKPFQDLI-NH2 2 nM, 45-minute incubation
T2 construct: STAT6(W123-T658)
T2 sequence (P42226 123-658): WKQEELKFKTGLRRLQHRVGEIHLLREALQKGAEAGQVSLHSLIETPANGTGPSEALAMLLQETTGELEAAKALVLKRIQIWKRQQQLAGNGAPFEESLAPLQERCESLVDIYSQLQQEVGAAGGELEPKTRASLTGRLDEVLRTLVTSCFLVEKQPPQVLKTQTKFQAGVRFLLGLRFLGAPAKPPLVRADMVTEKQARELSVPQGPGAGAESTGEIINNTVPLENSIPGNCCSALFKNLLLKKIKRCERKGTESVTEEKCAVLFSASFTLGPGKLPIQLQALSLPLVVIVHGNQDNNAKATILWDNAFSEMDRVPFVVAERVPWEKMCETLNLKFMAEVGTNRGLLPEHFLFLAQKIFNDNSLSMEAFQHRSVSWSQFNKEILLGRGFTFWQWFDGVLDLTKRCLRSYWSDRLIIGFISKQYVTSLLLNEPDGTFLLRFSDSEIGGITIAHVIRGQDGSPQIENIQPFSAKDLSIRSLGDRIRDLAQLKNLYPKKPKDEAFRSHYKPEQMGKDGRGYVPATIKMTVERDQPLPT
Method: STAT6 Fluorescence Polarization (FP) Assay
An FP assay was developed to determine IC50 values for test substances. Recombinant STAT6 protein (STAT6(W123-T658)) at 250 nM was combined with a fluorescently labeled, phosphotyrosine peptide probe (5-FAM-ApYKPFQDLI-NH2) at 2 nM in FP buffer (10 mM HEPES pH 7.4, 50 mM NaCl, 1 mM EDTA, 0.05% Tween 20, 2 mM DTT). 50 μL of STAT6-probe mixture was added to serial diluted compounds in black, 96-well plates (Greiner BioOne 655076) to a final concentration of 1% DMSO. Reaction components were mixed, and FP was measured after 45-minute incubation at room temperature using a Tecan Spark multimode plate reader. FP signal (mP) was plotted against the log concentration of the test substances and IC50 values were calculated by nonlinear regression analysis using GraphPad Prism software. For STAT6 FP assay, A=≤300 nM; B=>300-3000 nM; C=>3-30 μM; and D=>30 μM.

T1 sequence (P40763 127-722, species assumed): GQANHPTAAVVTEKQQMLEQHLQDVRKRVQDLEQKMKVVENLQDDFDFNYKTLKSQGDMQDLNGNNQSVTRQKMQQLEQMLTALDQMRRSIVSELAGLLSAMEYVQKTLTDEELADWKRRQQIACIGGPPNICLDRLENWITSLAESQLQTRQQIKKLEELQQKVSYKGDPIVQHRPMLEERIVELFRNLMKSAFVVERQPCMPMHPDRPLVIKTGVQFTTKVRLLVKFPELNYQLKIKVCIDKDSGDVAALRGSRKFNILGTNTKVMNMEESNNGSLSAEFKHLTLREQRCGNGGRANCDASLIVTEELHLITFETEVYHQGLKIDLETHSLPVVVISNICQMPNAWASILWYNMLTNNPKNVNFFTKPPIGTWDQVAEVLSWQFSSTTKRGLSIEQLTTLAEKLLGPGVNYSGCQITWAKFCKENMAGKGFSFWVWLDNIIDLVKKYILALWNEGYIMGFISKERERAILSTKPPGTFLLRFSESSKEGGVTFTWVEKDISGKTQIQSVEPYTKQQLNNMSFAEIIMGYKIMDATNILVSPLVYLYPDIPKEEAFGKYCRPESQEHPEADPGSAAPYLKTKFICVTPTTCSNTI

Structure (SMILES): O=C(N[C@H]1C[C@@H]2C[C@@H]2C[C@H]2CC[C@@H](C(=O)N3CC(C(=O)N4CCOCC4)C3)N2C1=O)c1cc2cc(C(F)P(=O)(O)O)ccc2s1 (stereo partly drawn) [Compound 18, (fluoro(2-(((3S,6S,7aS,8aR,9aR)-3-(3-(morpholine-4-carbonyl)azetidine-1-carbonyl)-5-oxodecahydro-1H-cyclopropa[d]pyrrolo[1,2-a]azocin-6-yl)carbamoyl)benzo[b]thiophen-5-yl)methyl)phosphonic acid]
IC50 [1]: < 100 nM
IC50 [2]: 3000 to 30000 nM

Structure (SMILES): C[C@@H]1[C@@H](n2ccnc2)CN1C(=O)[C@@H]1CC[C@@H]2C[C@H]3C[C@H]3C[C@H](NC(=O)c3cc4cc(C(F)(F)P(=O)(O)O)ccc4s3)C(=O)N21 [Compound 19, ((2-(((3S,6S,7aS,8aR,9aR)-3-((2R,3S)-3-(1H-imidazol-1-yl)-2-methylazetidine-1-carbonyl)-5-oxodecahydro-1H-cyclopropa[d]pyrrolo[1,2-a]azocin-6-yl)carbamoyl)benzo[b]thiophen-5-yl)difluoromethyl)phosphonic acid]
IC50 [1]: < 100 nM
IC50 [2]: 3000 to 30000 nM

Structure (SMILES): O=C(NC1C[C@@H]2C[C@@H]2C[C@H]2CC[C@@H](C(=O)N3CC(C(=O)N4CCOCC4)C3)N2C1=O)c1cc2cc(CP(=O)(O)O)ccc2s1 (stereo partly drawn) [Compound 20, ((2-(((3S,7aS,8aR,9aR)-3-(3-(morpholine-4-carbonyl)azetidine-1-carbonyl)-5-oxodecahydro-1H-cyclopropa[d]pyrrolo[1,2-a]azocin-6-yl)carbamoyl)benzo[b]thiophen-5-yl)methyl)phosphonic acid]
IC50 [1]: 1000 to 10000 nM
IC50 [2]: > 30000 nM

Structure (SMILES): O=C(N[C@H]1C[C@H]2C[C@H]2C[C@H]2CC[C@@H](C(=O)N3CC(c4cccnc4)C3)N2C1=O)c1cc2cc([C@H](F)P(=O)(O)O)ccc2s1 [Compound 21, ((R)-fluoro(2-(((3S,6S,7aR,8aS,9aR)-5-oxo-3-(3-(pyridin-3-yl)azetidine-1-carbonyl)decahydro-1H-cyclopropa[d]pyrrolo[1,2-a]azocin-6-yl)carbamoyl)benzo[b]thiophen-5-yl)methyl)phosphonic acid]
IC50 [1]: < 100 nM
IC50 [2]: 3000 to 30000 nM

Structure (SMILES): O=C(N[C@H]1C[C@H]2C[C@H]2C[C@H]2CC[C@@H](C(=O)N3CC(c4cccnc4)C3)N2C1=O)c1cc2cc(CP(=O)(O)O)ccc2s1 [Compound 22, ((2-(((3S,6S,7aR,8aS,9aR)-5-oxo-3-(3-(pyridin-3-yl)azetidine-1-carbonyl)decahydro-1H-cyclopropa[d]pyrrolo[1,2-a]azocin-6-yl)carbamoyl)benzo[b]thiophen-5-yl)methyl)phosphonic acid]
IC50 [1]: 100 to 1000 nM
IC50 [2]: > 30000 nM

Structure (SMILES): O=C(N[C@H]1C[C@H]2C[C@H]2C[C@H]2CC[C@@H](C(=O)N3CC(c4ccccn4)C3)N2C1=O)c1cc2cc(CP(=O)(O)O)ccc2s1 [Compound 23, ((2-(((3S,6S,7aR,8aS,9aR)-5-oxo-3-(3-(pyridin-2-yl)azetidine-1-carbonyl)decahydro-1H-cyclopropa[d]pyrrolo[1,2-a]azocin-6-yl)carbamoyl)benzo[b]thiophen-5-yl)methyl)phosphonic acid]
IC50 [1]: 100 to 1000 nM
IC50 [2]: > 30000 nM

Structure (SMILES): O=C(N[C@H]1C[C@@H]2C[C@@H]2C[C@H]2CC[C@@H](C(=O)N3CC(n4ccnc4)C3)N2C1=O)c1cc2cc(CP(=O)(O)O)ccc2s1 [Compound 24, ((2-(((3S,6S,7aS,8aR,9aR)-3-(3-(1H-imidazol-1-yl)azetidine-1-carbonyl)-5-oxodecahydro-1H-cyclopropa[d]pyrrolo[1,2-a]azocin-6-yl)carbamoyl)benzo[b]thiophen-5-yl)methyl)phosphonic acid]
IC50 [1]: 100 to 1000 nM
IC50 [2]: > 30000 nM

Second part, the molecule after the results:

IC50 [1]: 100 to 1000 nM
IC50 [2]: > 30000 nM
Structure (SMILES): O=C(N[C@H]1C[C@H]2C[C@H]2C[C@H]2CC[C@@H](C(=O)N3CC(n4ccnc4)C3)N2C1=O)c1cc2cc(CP(=O)(O)O)ccc2s1 [Compound 25, ((2-(((3S,6S,7aR,8aS,9aR)-3-(3-(1H-imidazol-1-yl)azetidine-1-carbonyl)-5-oxodecahydro-1H-cyclopropa[d]pyrrolo[1,2-a]azocin-6-yl)carbamoyl)benzo[b]thiophen-5-yl)methyl)phosphonic acid]

IC50 [1]: < 100 nM
IC50 [2]: 300 to 3000 nM
Structure (SMILES): NC(=O)Cc1cc(-c2ccccc2)ccc1NC(=O)[C@@H]1CC[C@@H]2C[C@H]3C[C@H]3C[C@H](NC(=O)c3cc4cc(C(F)(F)P(=O)(O)O)ccc4s3)C(=O)N21 [Compound 26, ((2-(((3S,6S,7aS,8aR,9aR)-3-((3-(2-amino-2-oxoethyl)-[1,1′-biphenyl]-4-yl)carbamoyl)-5-oxodecahydro-1H-cyclopropa[d]pyrrolo[1,2-a]azocin-6-yl)carbamoyl)benzo[b]thiophen-5-yl)difluoromethyl)phosphonic acid]

IC50 [1]: 100 to 1000 nM
IC50 [2]: 3000 to 30000 nM
Structure (SMILES): COC1(c2nccn2C)CN(C(=O)[C@@H]2CC[C@@H]3C[C@@H]4[C@H](C[C@H](NC(=O)c5cc6cc(C(F)(F)P(=O)(O)O)ccc6s5)C(=O)N32)C4(F)F)C1 [Compound 29, ((2-(((3S,6S,7aS,8aR,9aR)-8,8-difluoro-3-(3-methoxy-3-(1-methyl-1H-imidazol-2-yl)azetidine-1-carbonyl)-5-oxodecahydro-1H-cyclopropa[d]pyrrolo[1,2-a]azocin-6-yl)carbamoyl)benzo[b]thiophen-5-yl)difluoromethyl)phosphonic acid]

IC50 [1]: < 100 nM
IC50 [2]: 3000 to 30000 nM
Structure (SMILES): O=C(N[C@H]1C[C@H]2[C@@H](C[C@H]3CC[C@@H](C(=O)N4CC(C(=O)N5CCOCC5)C4)N3C1=O)C2(F)F)c1cc2cc(C(F)(F)P(=O)(O)O)ccc2s1 [Compound 30, ((2-(((3S,6S,7aS,8aR,9aR)-8,8-difluoro-3-(3-(morpholine-4-carbonyl)azetidine-1-carbonyl)-5-oxodecahydro-1H-cyclopropa[d]pyrrolo[1,2-a]azocin-6-yl)carbamoyl)benzo[b]thiophen-5-yl)difluoromethyl)phosphonic acid]

IC50 [1]: < 100 nM
IC50 [2]: 3000 to 30000 nM
Structure (SMILES): O=C(N[C@H]1C[C@H]2[C@@H](C[C@H]3CC[C@@H](C(=O)N4CC(c5cccnc5)C4)N3C1=O)C2(F)F)c1cc2cc(C(F)(F)P(=O)(O)O)ccc2s1 [Compound 31, ((2-(((3S,6S,7aS,8aR,9aR)-8,8-difluoro-5-oxo-3-(3-(pyridin-3-yl)azetidine-1-carbonyl)decahydro-1H-cyclopropa[d]pyrrolo[1,2-a]azocin-6-yl)carbamoyl)benzo[b]thiophen-5-yl)difluoromethyl)phosphonic acid]

IC50 [1]: < 100 nM
IC50 [2]: 300 to 3000 nM
Structure (SMILES): O=C(N[C@H]1C[C@@H]2C[C@@H]2C[C@H]2CC[C@@H](C(=O)Nc3ccc(-c4ccccc4)cc3)N2C1=O)c1cc2cc(C(F)(F)P(=O)(O)O)ccc2s1 [Compound 32, ((2-(((3S,6S,7aS,8aR,9aR)-3-([1,1′-biphenyl]-4-ylcarbamoyl)-5-oxodecahydro-1H-cyclopropa[d]pyrrolo[1,2-a]azocin-6-yl)carbamoyl)benzo[b]thiophen-5-yl)difluoromethyl)phosphonic acid]

IC50 [1]: 100 to 1000 nM
IC50 [2]: > 30000 nM
Structure (SMILES): CC(c1ccc2sc(C(=O)N[C@H]3C[C@@H]4C[C@@H]4C[C@H]4CC[C@@H](C(=O)N5CC(C(=O)N6CCOCC6)C5)N4C3=O)cc2c1)P(=O)(O)O (stereo partly drawn) [Compound 35, (1-(2-(((3S,6S,7aS,8aR,9aR)-3-(3-(morpholine-4-carbonyl)azetidine-1-carbonyl)-5-oxodecahydro-1H-cyclopropa[d]pyrrolo[1,2-a]azocin-6-yl)carbamoyl)benzo[b]thiophen-5-yl)ethyl)phosphonic acid]

— patent US20250215030A1, “STAT MODULATORS AND USES THEREOF” (Recludix Pharma, Inc., priority 2022, published 2025)
